Reference: PubChem BioAssay (NCI)
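Each compound was tested at five concentrations against cells in 96-well plates for 48 hours. The concentration for full growth arrest is given as TGI.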

Key:
Test in all cases: NCI anticancer screen, dose series, 48 h
SK-OV-3 ovarian = tested on: SK-OV-3 ovarian
SK-MEL-5 melanoma = tested on: SK-MEL-5 melanoma
UO-31 renal = tested on: UO-31 renal
HCT-15 colon = tested on: HCT-15 colon
SNB-19 CNS = tested on: SNB-19 CNS
DMS 114 small cell lung = tested on: DMS 114 small cell lung
SK-MEL-28 melanoma = tested on: SK-MEL-28 melanoma
SF-539 CNS = tested on: SF-539 CNS
HL-60(TB) leukemia = tested on: HL-60(TB) leukemia
SNB-78 CNS = tested on: SNB-78 CNS
LOX IMVI melanoma = tested on: LOX IMVI melanoma
A549 NSCLC = tested on: A549 NSCLC
EKVX NSCLC = tested on: EKVX NSCLC
KM12 colon = tested on: KM12 colon
COLO 205 colon = tested on: COLO 205 colon
RXF-631 renal = tested on: RXF-631 renal
NCI-H226 lung = tested on: NCI-H226 lung
SF-268 CNS = tested on: SF-268 CNS
CAKI-1 renal = tested on: CAKI-1 renal
SN12C renal = tested on: SN12C renal
M19-MEL melanoma = tested on: M19-MEL melanoma
SR leukemia = tested on: SR leukemia
OVCAR-4 ovarian = tested on: OVCAR-4 ovarian
OVCAR-5 ovarian = tested on: OVCAR-5 ovarian
XF 498 CNS = tested on: XF 498 CNS
DMS 273 small cell lung = tested on: DMS 273 small cell lung
LXFL 529 NSCLC = tested on: LXFL 529 NSCLC
UACC-257 melanoma = tested on: UACC-257 melanoma
SNB-75 CNS = tested on: SNB-75 CNS
HOP-62 NSCLC = tested on: HOP-62 NSCLC
786-0 renal = tested on: 786-0 renal
MOLT-4 leukemia = tested on: MOLT-4 leukemia
RPMI-8226 leukemia = tested on: RPMI-8226 leukemia
HCC-2998 colon = tested on: HCC-2998 colon
U251 CNS = tested on: U251 CNS
TK-10 renal = tested on: TK-10 renal
ACHN renal = tested on: ACHN renal
HCT-116 colon = tested on: HCT-116 colon
HOP-18 NSCLC = tested on: HOP-18 NSCLC
KM20L2 colon = tested on: KM20L2 colon
SF-295 CNS = tested on: SF-295 CNS
OVCAR-3 ovarian = tested on: OVCAR-3 ovarian
A498 renal = tested on: A498 renal
NCI-H460 lung = tested on: NCI-H460 lung
K-562 leukemia = tested on: K-562 leukemia
NCI-H522 lung = tested on: NCI-H522 lung
IGROV1 ovarian = tested on: IGROV1 ovarian
OVCAR-8 ovarian = tested on: OVCAR-8 ovarian
HT29 colon = tested on: HT29 colon
DLD-1 colon = tested on: DLD-1 colon
SK-MEL-2 melanoma = tested on: SK-MEL-2 melanoma
NCI-H23 lung = tested on: NCI-H23 lung
UACC-62 melanoma = tested on: UACC-62 melanoma
M14 melanoma = tested on: M14 melanoma
SW-620 colon = tested on: SW-620 colon
HOP-92 NSCLC = tested on: HOP-92 NSCLC
MALME-3M melanoma = tested on: MALME-3M melanoma
RXF 393 renal = tested on: RXF 393 renal
CCRF-CEM leukemia = tested on: CCRF-CEM leukemia

SMILES: O=C(CC(=O)Nc1cccc(Cl)c1)NNCC(=O)Nc1nnc(-c2ccccc2)s1
- TGI (SK-OV-3 ovarian): 77.3 µM
- TGI (SK-MEL-5 melanoma): > 100 µM
- TGI (UO-31 renal): > 100 µM
- TGI (HCT-15 colon): > 100 µM
- TGI (SNB-19 CNS): > 100 µM
- TGI (DMS 114 small cell lung): > 100 µM
- TGI (SK-MEL-28 melanoma): > 100 µM
- TGI (SF-539 CNS): > 100 µM
- TGI (HL-60(TB) leukemia): > 100 µM
- TGI (SNB-78 CNS): > 100 µM
- TGI (LOX IMVI melanoma): > 100 µM
- TGI (A549 NSCLC): > 100 µM
- TGI (EKVX NSCLC): > 100 µM
- TGI (KM12 colon): > 100 µM
- TGI (COLO 205 colon): > 100 µM
- TGI (RXF-631 renal): > 100 µM
- TGI (NCI-H226 lung): 75.7 µM
- TGI (SF-268 CNS): > 100 µM
- TGI (CAKI-1 renal): > 100 µM
- TGI (SN12C renal): > 100 µM
- TGI (M19-MEL melanoma): > 100 µM
- TGI (SR leukemia): > 100 µM
- TGI (OVCAR-4 ovarian): 5.99 µM
- TGI (OVCAR-5 ovarian): > 100 µM
- TGI (XF 498 CNS): 76.3 µM
- TGI (DMS 273 small cell lung): > 100 µM
- TGI (LXFL 529 NSCLC): > 100 µM
- TGI (UACC-257 melanoma): > 100 µM
- TGI (SNB-75 CNS): 33.8 µM
- TGI (HOP-62 NSCLC): > 100 µM
- TGI (786-0 renal): 84.3 µM
- TGI (MOLT-4 leukemia): > 100 µM
- TGI (RPMI-8226 leukemia): 86.6 µM
- TGI (HCC-2998 colon): > 100 µM
- TGI (U251 CNS): > 100 µM
- TGI (TK-10 renal): > 100 µM
- TGI (ACHN renal): > 100 µM
- TGI (HCT-116 colon): > 100 µM
- TGI (HOP-18 NSCLC): 58.6 µM
- TGI (KM20L2 colon): > 100 µM
- TGI (SF-295 CNS): > 100 µM
- TGI (OVCAR-3 ovarian): > 100 µM
- TGI (A498 renal): 86.8 µM
- TGI (NCI-H460 lung): > 100 µM
- TGI (K-562 leukemia): > 100 µM
- TGI (NCI-H522 lung): > 100 µM
- TGI (IGROV1 ovarian): > 100 µM
- TGI (OVCAR-8 ovarian): > 100 µM
- TGI (HT29 colon): > 100 µM
- TGI (DLD-1 colon): > 100 µM
- TGI (SK-MEL-2 melanoma): > 100 µM
- TGI (NCI-H23 lung): > 100 µM
- TGI (UACC-62 melanoma): > 100 µM
- TGI (M14 melanoma): > 100 µM
- TGI (SW-620 colon): > 100 µM

SMILES: C/C(=N\NC(N)=S)c1cc(C)c(C)cc1C
- TGI (SK-OV-3 ovarian): > 100 µM
- TGI (SK-MEL-5 melanoma): > 100 µM
- TGI (UO-31 renal): > 100 µM
- TGI (HCT-15 colon): > 100 µM
- TGI (HOP-92 NSCLC): > 100 µM
- TGI (MALME-3M melanoma): 92 µM
- TGI (DMS 114 small cell lung): 42.3 µM
- TGI (SK-MEL-28 melanoma): > 100 µM
- TGI (SF-539 CNS): > 100 µM
- TGI (HL-60(TB) leukemia): 65.5 µM
- TGI (SNB-78 CNS): > 100 µM
- TGI (LOX IMVI melanoma): > 100 µM
- TGI (A549 NSCLC): > 100 µM
- TGI (EKVX NSCLC): > 100 µM
- TGI (KM12 colon): 71.2 µM
- TGI (COLO 205 colon): > 100 µM
- TGI (RXF-631 renal): > 100 µM
- TGI (NCI-H226 lung): > 100 µM
- TGI (SF-268 CNS): > 100 µM
- TGI (CAKI-1 renal): > 100 µM
- TGI (SN12C renal): > 100 µM
- TGI (M19-MEL melanoma): 74.2 µM
- TGI (SR leukemia): > 100 µM
- TGI (OVCAR-4 ovarian): > 100 µM
- TGI (OVCAR-5 ovarian): 46.5 µM
- TGI (RXF 393 renal): 97.2 µM
- TGI (XF 498 CNS): 50.3 µM
- TGI (DMS 273 small cell lung): > 100 µM
- TGI (LXFL 529 NSCLC): > 100 µM
- TGI (UACC-257 melanoma): > 100 µM
- TGI (SNB-75 CNS): 85.3 µM
- TGI (HOP-62 NSCLC): > 100 µM
- TGI (786-0 renal): > 100 µM
- TGI (MOLT-4 leukemia): 84.5 µM
- TGI (RPMI-8226 leukemia): > 100 µM
- TGI (HCC-2998 colon): > 100 µM
- TGI (CCRF-CEM leukemia): > 100 µM
- TGI (U251 CNS): > 100 µM
- TGI (TK-10 renal): > 100 µM
- TGI (ACHN renal): > 100 µM
- TGI (HCT-116 colon): > 100 µM
- TGI (HOP-18 NSCLC): > 100 µM
- TGI (KM20L2 colon): > 100 µM
- TGI (SF-295 CNS): > 100 µM
- TGI (OVCAR-3 ovarian): 60.3 µM
- TGI (A498 renal): > 100 µM
- TGI (NCI-H460 lung): > 100 µM
- TGI (K-562 leukemia): > 100 µM
- TGI (IGROV1 ovarian): > 100 µM
- TGI (OVCAR-8 ovarian): > 100 µM
- TGI (HT29 colon): 47.6 µM
- TGI (DLD-1 colon): > 100 µM
- TGI (SK-MEL-2 melanoma): > 100 µM
- TGI (NCI-H23 lung): > 100 µM
- TGI (UACC-62 melanoma): > 100 µM
- TGI (M14 melanoma): > 100 µM
- TGI (SW-620 colon): > 100 µM
